These results are taken from paper PMC6025901 (Science translational medicine, 2015).

For one assay, the target named is TcdB (Clostridioides difficile, UniProt P18177). In words: murine systemic intoxication. Format: in vivo, mouse. Conditions: mice, TcdB 1.0 µg/kg i.p. pretreated with 100 nM ebselen.
The subject of assay [1] is TcdB-induced cell rounding, human foreskin fibroblast (HFF) cells. The assay is described as follows: cells. Format: cell-based. Conditions: for pEC50: Homo sapiens, HFF.
In a further assay the target is full-length TcdB (Clostridioides difficile, UniProt P18177). It is filed as biochemical, Clostridium difficile.
full-length TcdB, sequence (P18177 whole entry): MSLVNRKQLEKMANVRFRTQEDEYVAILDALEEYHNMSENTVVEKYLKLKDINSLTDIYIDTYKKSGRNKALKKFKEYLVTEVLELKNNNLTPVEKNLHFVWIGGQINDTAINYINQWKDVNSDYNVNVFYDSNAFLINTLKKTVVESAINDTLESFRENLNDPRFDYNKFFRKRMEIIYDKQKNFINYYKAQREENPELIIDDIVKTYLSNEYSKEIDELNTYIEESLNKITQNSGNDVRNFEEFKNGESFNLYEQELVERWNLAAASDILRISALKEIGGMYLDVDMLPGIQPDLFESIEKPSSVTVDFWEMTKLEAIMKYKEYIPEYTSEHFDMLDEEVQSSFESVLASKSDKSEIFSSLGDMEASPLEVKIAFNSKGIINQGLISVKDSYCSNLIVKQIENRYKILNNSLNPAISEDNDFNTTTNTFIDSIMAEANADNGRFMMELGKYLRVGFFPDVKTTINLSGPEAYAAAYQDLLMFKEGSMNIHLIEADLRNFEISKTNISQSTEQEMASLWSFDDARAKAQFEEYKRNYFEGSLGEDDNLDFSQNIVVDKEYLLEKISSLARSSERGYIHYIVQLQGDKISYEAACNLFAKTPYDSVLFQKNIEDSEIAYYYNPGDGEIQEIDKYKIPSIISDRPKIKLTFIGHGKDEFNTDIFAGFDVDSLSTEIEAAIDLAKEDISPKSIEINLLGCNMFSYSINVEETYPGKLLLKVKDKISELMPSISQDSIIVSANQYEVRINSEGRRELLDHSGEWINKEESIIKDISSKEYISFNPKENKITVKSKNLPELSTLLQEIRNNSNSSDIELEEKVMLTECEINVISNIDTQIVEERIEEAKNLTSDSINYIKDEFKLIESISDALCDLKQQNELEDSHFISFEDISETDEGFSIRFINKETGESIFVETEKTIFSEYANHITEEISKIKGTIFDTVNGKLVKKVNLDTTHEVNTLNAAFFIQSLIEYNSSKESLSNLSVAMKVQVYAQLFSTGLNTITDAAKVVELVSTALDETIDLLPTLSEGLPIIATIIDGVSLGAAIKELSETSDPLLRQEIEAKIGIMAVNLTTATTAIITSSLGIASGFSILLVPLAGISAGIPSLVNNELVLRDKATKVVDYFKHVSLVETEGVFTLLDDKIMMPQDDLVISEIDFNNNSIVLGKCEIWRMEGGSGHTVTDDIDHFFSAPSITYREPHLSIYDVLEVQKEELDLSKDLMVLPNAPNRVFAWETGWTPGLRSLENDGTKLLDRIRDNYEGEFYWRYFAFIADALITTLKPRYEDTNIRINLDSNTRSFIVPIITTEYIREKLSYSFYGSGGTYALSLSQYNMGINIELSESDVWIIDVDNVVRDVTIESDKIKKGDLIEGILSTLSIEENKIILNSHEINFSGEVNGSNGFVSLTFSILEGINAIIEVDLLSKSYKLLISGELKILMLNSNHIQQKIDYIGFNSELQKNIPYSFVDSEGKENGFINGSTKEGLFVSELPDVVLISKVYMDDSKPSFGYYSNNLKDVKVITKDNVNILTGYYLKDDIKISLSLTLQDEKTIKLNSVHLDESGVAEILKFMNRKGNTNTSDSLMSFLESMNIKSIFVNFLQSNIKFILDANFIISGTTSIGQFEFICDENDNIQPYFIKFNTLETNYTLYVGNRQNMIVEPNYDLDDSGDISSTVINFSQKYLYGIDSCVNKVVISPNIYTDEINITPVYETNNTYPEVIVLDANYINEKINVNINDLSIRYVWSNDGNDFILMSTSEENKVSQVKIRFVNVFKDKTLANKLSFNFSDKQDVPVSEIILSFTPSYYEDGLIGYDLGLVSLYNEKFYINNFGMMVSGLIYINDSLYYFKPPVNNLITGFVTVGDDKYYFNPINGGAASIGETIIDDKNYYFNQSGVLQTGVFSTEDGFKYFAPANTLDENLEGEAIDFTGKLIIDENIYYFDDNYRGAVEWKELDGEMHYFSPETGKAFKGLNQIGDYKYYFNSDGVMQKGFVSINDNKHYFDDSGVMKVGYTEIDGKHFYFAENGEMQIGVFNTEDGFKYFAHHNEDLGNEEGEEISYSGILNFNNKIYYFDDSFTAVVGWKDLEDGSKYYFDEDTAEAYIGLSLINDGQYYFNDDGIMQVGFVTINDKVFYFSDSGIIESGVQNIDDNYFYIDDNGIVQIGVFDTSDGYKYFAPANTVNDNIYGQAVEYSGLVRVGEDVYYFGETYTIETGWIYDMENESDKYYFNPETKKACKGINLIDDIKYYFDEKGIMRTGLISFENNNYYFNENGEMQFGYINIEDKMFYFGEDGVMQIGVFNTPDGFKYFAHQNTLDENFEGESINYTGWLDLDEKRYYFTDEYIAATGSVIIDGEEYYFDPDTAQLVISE
For assay [2], the system named is large clostridial toxins (TcdA and TcdB) in patient stool sample, cell rounding. In words: cells. Format: cell-based. Conditions: Homo sapiens, read-out: EC50 for inhibition of toxin-induced cytopathology.
For the next assay, the target named is TcdB CPD domain (Clostridioides difficile, UniProt P18177). The assay is described as follows: competition labeling assay with TAMRA–AWP-19. It is filed as biochemical, Clostridium difficile. Conditions: IP6-activated CPD, TAMRA–AWP-19 labeling.
TcdB CPD domain, sequence (P18177 544-799 limits assumed): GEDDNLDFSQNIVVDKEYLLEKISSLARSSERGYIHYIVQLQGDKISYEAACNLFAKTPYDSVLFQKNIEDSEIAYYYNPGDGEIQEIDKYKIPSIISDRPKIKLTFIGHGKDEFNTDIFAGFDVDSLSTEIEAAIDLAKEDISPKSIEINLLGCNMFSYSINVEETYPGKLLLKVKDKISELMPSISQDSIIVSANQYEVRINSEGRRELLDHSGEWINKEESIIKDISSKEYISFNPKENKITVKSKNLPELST
Another assay deals with C. difficile strain 630. The assay is described as follows: mouse C. difficile infection model. Format: in vivo. Conditions: for histopathological score, dose-response study: 5-day treatment.
Assay [3] concerns the target TcdB GTD domain (amino acids 1 to 543) (Clostridioides difficile, UniProt P18177). It is filed as biochemical, Clostridium difficile.
In the next assay the target is full-length TcdA (Clostridioides difficile, UniProt P16154). The assay is described as follows: IP6-induced autoprocessing / TAMRA–AWP-19 labeling of full-length TcdA. Format: biochemical, Clostridium difficile.
[4] abbreviates: 100 mg/kg daily oral gavage, day 5, vs vehicle.

pEC50: −log10 of the molar value. Like-named read-outs stand apart in the source and are kept apart here.

TcdB, sequence (P18177 2-2366 limits assumed): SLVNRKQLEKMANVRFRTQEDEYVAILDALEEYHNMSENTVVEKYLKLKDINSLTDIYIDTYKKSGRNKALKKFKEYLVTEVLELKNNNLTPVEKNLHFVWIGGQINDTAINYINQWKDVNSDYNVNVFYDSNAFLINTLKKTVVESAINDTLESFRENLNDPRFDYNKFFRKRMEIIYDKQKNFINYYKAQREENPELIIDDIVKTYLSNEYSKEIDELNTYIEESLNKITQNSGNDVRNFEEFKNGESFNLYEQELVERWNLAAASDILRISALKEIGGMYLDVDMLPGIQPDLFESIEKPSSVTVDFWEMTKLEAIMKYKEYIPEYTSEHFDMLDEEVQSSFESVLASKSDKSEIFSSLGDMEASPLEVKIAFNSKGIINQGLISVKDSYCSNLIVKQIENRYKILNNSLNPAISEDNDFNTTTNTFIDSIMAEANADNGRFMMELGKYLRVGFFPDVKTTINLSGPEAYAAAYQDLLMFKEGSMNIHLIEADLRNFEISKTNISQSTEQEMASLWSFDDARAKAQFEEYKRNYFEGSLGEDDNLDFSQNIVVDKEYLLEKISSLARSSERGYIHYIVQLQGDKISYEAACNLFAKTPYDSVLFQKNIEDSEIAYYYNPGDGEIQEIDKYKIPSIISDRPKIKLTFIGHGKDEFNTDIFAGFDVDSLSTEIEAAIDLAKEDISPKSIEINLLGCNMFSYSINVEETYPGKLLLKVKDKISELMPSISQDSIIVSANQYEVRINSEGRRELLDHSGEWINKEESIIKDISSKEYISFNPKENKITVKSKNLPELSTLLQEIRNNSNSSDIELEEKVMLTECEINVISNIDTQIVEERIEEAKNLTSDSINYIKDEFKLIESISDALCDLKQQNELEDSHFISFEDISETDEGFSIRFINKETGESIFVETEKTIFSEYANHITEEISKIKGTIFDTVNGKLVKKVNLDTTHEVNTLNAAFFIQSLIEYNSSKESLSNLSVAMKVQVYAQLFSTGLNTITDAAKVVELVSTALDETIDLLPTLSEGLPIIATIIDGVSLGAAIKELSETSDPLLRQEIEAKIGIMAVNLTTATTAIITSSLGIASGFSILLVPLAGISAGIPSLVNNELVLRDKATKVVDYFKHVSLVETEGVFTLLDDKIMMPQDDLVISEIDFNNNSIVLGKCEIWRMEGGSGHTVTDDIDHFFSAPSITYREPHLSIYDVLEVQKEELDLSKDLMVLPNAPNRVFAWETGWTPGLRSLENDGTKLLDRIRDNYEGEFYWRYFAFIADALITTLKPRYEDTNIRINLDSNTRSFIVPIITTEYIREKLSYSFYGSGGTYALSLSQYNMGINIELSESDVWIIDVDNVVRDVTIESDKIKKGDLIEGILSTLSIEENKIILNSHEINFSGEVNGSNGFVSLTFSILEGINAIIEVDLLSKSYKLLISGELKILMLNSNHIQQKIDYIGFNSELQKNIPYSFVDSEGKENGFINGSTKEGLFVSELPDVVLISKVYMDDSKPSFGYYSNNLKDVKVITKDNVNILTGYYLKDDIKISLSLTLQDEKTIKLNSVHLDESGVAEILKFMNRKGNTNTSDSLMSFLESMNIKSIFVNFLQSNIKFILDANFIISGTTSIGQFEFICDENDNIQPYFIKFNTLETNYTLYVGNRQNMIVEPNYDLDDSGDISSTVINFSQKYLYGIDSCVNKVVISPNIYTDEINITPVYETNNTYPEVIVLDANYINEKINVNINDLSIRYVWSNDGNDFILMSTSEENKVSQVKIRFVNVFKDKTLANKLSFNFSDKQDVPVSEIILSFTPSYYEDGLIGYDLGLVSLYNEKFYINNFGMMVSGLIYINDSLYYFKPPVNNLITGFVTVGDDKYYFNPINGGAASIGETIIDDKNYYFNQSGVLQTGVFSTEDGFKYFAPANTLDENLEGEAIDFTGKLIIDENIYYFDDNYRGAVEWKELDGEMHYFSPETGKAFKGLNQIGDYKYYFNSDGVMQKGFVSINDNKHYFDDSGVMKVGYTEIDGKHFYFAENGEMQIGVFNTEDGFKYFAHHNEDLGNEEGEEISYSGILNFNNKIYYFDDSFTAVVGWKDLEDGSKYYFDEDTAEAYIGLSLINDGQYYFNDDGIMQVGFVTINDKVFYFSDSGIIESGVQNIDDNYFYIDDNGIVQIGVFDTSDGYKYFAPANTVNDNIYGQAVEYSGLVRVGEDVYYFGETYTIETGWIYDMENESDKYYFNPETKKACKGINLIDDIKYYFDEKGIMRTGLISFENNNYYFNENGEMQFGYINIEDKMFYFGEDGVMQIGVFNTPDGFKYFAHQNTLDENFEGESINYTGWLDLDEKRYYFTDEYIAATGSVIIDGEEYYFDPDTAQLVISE

As for `O=c1c2ccccc2[se]n1-c1ccccc1` [ebselen, 2-phenyl-1,2-benzoselenazol-3-one], the “clinical signs of toxin action (vital signs)” value on TcdB is given as “no significant changes in vital signs”. Further, in assay [1], the “glucosylated Rac1 (Western blot, mAb102 nonglucosylated Rac1)” value was “decreased with increasing amounts of ebselen”. In addition, the “protection against delayed toxicity of L543A noncleavable mutant TcdB” value in assay [1] is on record as “showed further protection”. Further, the pEC50 (commonly the EC50 on a negative log10 scale, so that one unit is a factor of ten) is 7.69 in assay [1] (read-out: EC50 for blocking cell rounding), 6.66 in assay [1] (read-out: EC50 for protection against cell rounding) and 6.43 in assay [2]. Moreover, on full-length TcdB, the “concentration giving complete inhibition of IP6-induced release of the GTD” value is listed as 20 nM. Besides, at full-length TcdB, the “inhibition of IP6-induced autoprocessing of full-length TcdB” value is listed as “low nanomolar potency”. In addition, at TcdB CPD domain, the “inhibition of IP6-induced labeling of the CPD active-site cysteine” value is given as “low nanomolar concentrations”. For the same compound, the “histopathological score, dose-response study” value with C. difficile strain 630 (1 mg/kg daily) was “no improvement in histopathological score”; in the assay with C. difficile strain 630 (10 mg/kg daily), “partial response”; with C. difficile strain 630 (100 mg/kg daily) it was “virtually complete response”. Further, the “C. difficile CFU counts in feces” value in the assay with C. difficile strain 630 (100 mg/kg daily oral gavage, 5-day experiment) is “did not significantly affect”. Also, the “histopathological scores for cell infiltration, submucosal edema, and mucosal hypertrophy” value in the assay on C. difficile strain 630 (setting [4]) is given as “significantly lower”. In the assay with C. difficile strain 630 (setting [4]), the “overall histopathological (clinical) score” value is “statistically significant drop in clinical score”. Further, the “cell rounding activity of shed toxin in feces (quantity of feces required to induce 50% cell rounding)” value in the assay with C. difficile strain 630 (100 mg/kg daily oral gavage, day 5 after infection) is listed as “reduction in cell rounding activity of shed toxin”. Also, the “cleaved form of GTD in colon tissues (Western blot)” value with C. difficile strain 630 (100 mg/kg daily oral gavage, vs vehicle) is given as “reduced the amount of the cleaved form of GTD”. For the same compound, in assay [3], the “inhibition of glucosyltransferase activity of the GTD domain” value is listed as “did not show any inhibition”. In addition, the “inhibition of IP6-induced autoprocessing of full-length TcdA” value at full-length TcdA is listed as “low nanomolar potency”.
